Experimental data from US5424334A, “Peptide mimetic compounds useful as platelet aggregation inhibitors” (G. D. Searle & Co., priority 1991, dated 1995).
pIC50: −log10 of the molar value. Counter-ions that a name gives are not always drawn.

Tested on: Dog PRP (platelet aggregation)
Assay: In-vitro platelet aggregation in PRP (ADP-induced)
Type: cell-based
Settings: Canis lupus familiaris, adenosine 5'diphosphate (ADP) induced, by linear regression of dose response curve
Description: In-Vitro Platelet Aggregation in PRP
Healthy male or female dogs were fasted for 8 hours prior to drawing blood; then 30 ml whole blood was collected using a butterfly needle and 30 cc plastic syringe with 3 ml of 0.129M buffered sodium citrate (3.8%). The syringe was rotated carefully as blood was drawn to mix the citrate. Platelet-rich plasma (PRP) was prepared by centrifugation at 975× g for 3.17 minutes at room temperature, allowing the centrifuge to coast to a stop without braking. The PRP was removed from the blood with a plastic pipette and placed in a plastic capped, 50 ml Corning conical sterile centrifuge tube which was held at room temperature. Platelet poor plasma (PPP) was prepared by centrifuging the remaining blood at 2000× g for 15 minutes at room temperature allowing the centrifuge to coast to a stop without braking. The PRP was adjusted with PPP to a count of 2-3×10^8 platelets per ml. 400 μl of the PRP preparation and 50 μl of the compound to be tested or saline were preincubated for 1 minute at 37° C. in a BioData aggregometer (BioData, Horsham, Pa.). 50 μl of adenosine 5'diphosphate (ADP) (50 μm final concentration) was added to the cuvettes and the aggregation was monitored for 1 minute. All compounds are tested in duplicate. Results are calculated as follows:
Percent of control=[(maximal OD minus initial OD of compound) divided by (maximal OD minus initial OD of control saline)]×100. The % inhibition=100-(percent of control).
In Table A, two readings given in a single box indicate that two trials, rather than a single trial, were run for that particular compound in that particular assay.

Structure (SMILES) | pIC50
N=C(N)c1ccc(CCCCNC(=O)[C@H](CCC(=O)O)NC(=O)OCc2ccccc2)cc1 [Compound 52828, 5-[[4-[4-(aminoiminomethyl)phenyl]butyl]amino]-5-oxo-4(S)-[[(phenylmethoxy)carbonyl]amino]pentanoic acid] | 5.38
N=C(N)c1ccc(CCCCNC(=O)[C@@H](CC(=O)O)NC(=O)OCc2ccccc2)cc1 [Compound 52513, 4-[[4-[4-(aminoiminomethyl)phenyl]butyl]amino]-4-oxo-3(R)-[[(Phenylmethoxy)carbonyl]amino]butanoic acid] | 5.52
N=C(N)c1ccc(CCCCNC(=O)[C@@H](CCC(=O)O)NC(=O)OCc2ccccc2)cc1 [Compound 52809, 5-[[4-[4-(aminoiminomethyl)phenyl]butyl]amino]-5-oxo-4(R)-[[(phenylmethoxy)carbonyl]amino]pentanoic acid] | 5.74
Cc1ccc(S(=O)(=O)N[C@H](CC(=O)O)C(=O)NCCCCc2ccc(C(=N)N)cc2)cc1 [Compound 53010, 4-[[4-[4-(aminoiminomethyl)phenyl]butyl]amino]-4-oxo-3R-[[(4-methylphenyl)sulfonyl]amino]butanoic acid] | 5.22
N=C(N)c1ccc(CCCCNC(=O)[C@H](CCC(=O)O)NC(=O)CCc2ccccc2)cc1 [Compound 53112, 5-[[4-[4-(aminoiminomethyl)phenyl]butyl]amino]-5-oxo-4S-[1-oxo-3-phenylpropylamino]pentanoic acid] | 5.72
CS(=O)(=O)N[C@H](CCC(=O)O)C(=O)NCCCCc1ccc(C(=N)N)cc1 [Compound 53065, 5-[[4-[4-(aminoiminomethyl)phenyl]butyl]amino]-5-oxo-4(R)-methylsulfonylaminopentanoic acid] | 5.46
N=C(N)c1ccc(CCCCNC(=O)[C@@H](CC(=O)O)NC(=O)CCc2ccccc2)cc1 [Compound 53143, 4-[[4-[4-(aminoiminomethyl)phenyl]butyl]amino]-4-oxo-3R-[(1-oxo-3-phenylpropyl)amino]butanoic acid] | 5.39
CCOC(=O)CC[C@@H](NC(=O)OCc1ccccc1)C(=O)NCCCCc1ccc(C(=N)N)cc1 [Compound 53033, ethyl 5-[[4-[4-(aminoiminomethyl)phenyl]butyl]amino]-5-oxo-4R-[[(phenylmethoxy)carbonyl]amino]pentanoate, monohydrochloride] | 5.15
N=C(N)c1ccc(C#CCCCNC(=O)[C@@H](CCC(=O)O)NC(=O)OCc2ccccc2)cc1 [Compound 53314, 5-[[5-[4-(aminoiminomethyl)phenyl]-4-pentynyl]amino]-5-oxo-4R-[[(phenylmethoxy)carbonyl]amino]pentanoic acid] | 5.70
